# Experimental data published in US5958947A, “DNA-affinic hypoxia selective cytotoxins” (priority 1996, dated 1999).
# Several values for one entry are separate records, joined by “and”; a condition that tells them apart may be missing. Equal values may be shown once. Where a name gives a salt, the structure may show the parent alone. Read-outs that look alike come from different tables or passages of the source.
# Legend:
# [1] = in vivo; cited from earlier work
# [2] = test system: V79 Chinese hamster lung cells; conditions: intracellular concentration for an SER of 1.6, hypoxic cells; no experiment described; cited from earlier work
# supercoiled DNA = experiment: DNA intercalation by agarose gel electrophoresis (mobility of supercoiled DNA); type: binding; conditions: electrophoretic gel, up to millimolar concentrations
# Description: An agarose gel electrophoresis technique was used to determine whether THNLA-1 intercalates DNA. Compounds that strongly intercalate DNA retard DNA mobility during agarose gel electrophoresis due to unwinding and extension of the dsDNA.
# [3] = Partition coefficient in octanol/water; type: physicochemical
# Method: The partition coefficient of the hypoxia selective cytotoxins of the present invention were determined by the method of T. Fujita et al., J. Am. Chem. Soc., 86, 5175-5180 (1964), incorporated herein by reference.
# [4] = test system: V79 Chinese hamster lung cells; experiment: Radiosensitization of V79 cells; type: cell-based; conditions: for EC (SER 1.6): Cricetulus griseus; for maximum SER value: hypoxic V79 cells, 100 μM for THNLA-1, non-toxic concentrations for others; for Therapeutic index (ThI): IC50/A,1h /C1.6: in vitro, V79 cells, hydrochloride
# Method: (§1) Samples of V79 Chinese hamster lung cells used in the following experiments were prepared as follows. V79 cells, exponentially growing as monolayer cultures in RPMI 1640 medium (Mediatech) supplemented with 10% fetal calf serum, were trypsinized, centrifuged for 5 min, harvested, then suspended in 25 ml Erlenmeyer flasks fitted with rubber caps at 5×10^5 cells/ml (5 ml). Individual flasks either were shaken (100 rpm) at 37° C. under aerobic conditions or made hypoxic by gassing with a 95% N2 (nitrogen)/5% CO2 (carbon dioxide) humidified gas mixture for 1 hour.
# Radiosensitization studies were performed on V79 cells in a manner similar to the acute toxicity experiments, except that the survival fraction was determined after a predetermined radiation dose. […] One Gy is equal to 100 rads, wherein one rad is the quantity of ionizing radiation that results in the absorption of 100 ergs of energy per gram of irradiated material. Hypoxia was maintained throughout irradiation. […] Sensitization enhancement ratios (SER) were determined at a 10% survival level. […] The plotted points in FIGS. 3 and 4 represent the mean of 2 or 3 replicate experiments.
# [5] = test system: V79 Chinese hamster lung cells; experiment: Acute aerobic and hypoxic cytotoxicity (colony formation); type: cell-based; conditions: V79 cells, 1 hour, 37° C.; for IC50: Cricetulus griseus, V79, 1 h, hypoxia, 50% inhibition of clonogenicity
# Method: as §1
# (§2) To determine the fraction of surviving cells, samples were removed, diluted and plated to provide 2×10^2 to 2×10^4 cells/well on 60 mm Linbro multi-well plates (Flow Laboratories, McLean, Virginia). The plates were incubated at 37° C. for 6 days, stained with crystal violet and examined for colony formation. Colonies of 50 cells or greater were counted. Each plotted point in FIGS. 1 and 2 represent the mean of three or four replicate experiments.
# [6] = as above; type: cell-based, Chinese hamster; conditions: chinese hamster, aerobic v79 cells, V79 cells, aerobic, 1 hour, 37° C.; 50% inhibition of clonogenicity
# Method: as §1, §2
# calf thymus Topo I = molecular target: T1, calf thymus Topo I (Bos taurus, UniProt F1MN93); experiment: Topoisomerase I interaction (relaxation of supercoiled DNA); type: biochemical
# T1 construct: purchased TopoGEN, Inc., Columbus, Ohio; host or cells: calf thymus
# T1 sequence (F1MN93 1-767): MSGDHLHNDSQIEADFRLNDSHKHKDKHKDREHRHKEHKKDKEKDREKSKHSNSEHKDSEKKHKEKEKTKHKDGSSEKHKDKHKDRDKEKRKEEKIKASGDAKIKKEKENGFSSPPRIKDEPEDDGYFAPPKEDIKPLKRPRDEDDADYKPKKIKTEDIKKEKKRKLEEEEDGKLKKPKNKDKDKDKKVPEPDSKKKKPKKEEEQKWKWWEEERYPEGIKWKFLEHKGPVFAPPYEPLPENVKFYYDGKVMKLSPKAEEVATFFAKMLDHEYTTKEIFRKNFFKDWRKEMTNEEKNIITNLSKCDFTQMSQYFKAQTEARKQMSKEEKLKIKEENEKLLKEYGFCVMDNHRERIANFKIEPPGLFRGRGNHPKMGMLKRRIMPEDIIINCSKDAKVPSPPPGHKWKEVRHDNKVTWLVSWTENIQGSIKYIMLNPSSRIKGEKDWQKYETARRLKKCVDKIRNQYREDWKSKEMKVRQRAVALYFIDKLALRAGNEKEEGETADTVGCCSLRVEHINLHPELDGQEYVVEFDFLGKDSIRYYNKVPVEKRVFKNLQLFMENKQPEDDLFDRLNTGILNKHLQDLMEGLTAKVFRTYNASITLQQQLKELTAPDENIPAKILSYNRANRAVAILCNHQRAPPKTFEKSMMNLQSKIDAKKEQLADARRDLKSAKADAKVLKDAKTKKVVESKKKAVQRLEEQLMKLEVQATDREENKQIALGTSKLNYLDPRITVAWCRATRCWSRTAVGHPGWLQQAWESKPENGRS
# Method: In particular, a Topo I drug screening kit (TopoGEN, Inc., Columbus, Ohio) was used to assay the topoisomerase I THNLA-1 interaction. […] Camptothecin is a Topoisomerase I poison used as an anticancer drug. Camptothecin stabilizes the Topo I-DNA cleavable complex, and therefore prevents the resealing of DNA by Topo-I.
# Individual reaction mixtures were heated for 30 minutes at 37° C. on a heating block, and then 2 μl of 10% SDS - proteinase K solution was added to each reaction mixture. The resulting reaction mixtures then were heated for an additional 30 minutes at 37° C. The reaction mixtures in a loading buffer were extracted with CHCl3 prior to submarine electrophoresis on a 1% agarose gel. The DNA bands were observed visually by staining with ethidium bromide (0.5 μg/ml).
# V79 cells [7] = experiment: Isoeffective to the oxygen dose (IsD); type: cell-based, Chinese hamster; conditions: Cricetulus griseus, V79, 1 h
# Description: The survival fraction under hypoxic conditions (plotted versus compound concentration) meets the aerobic survival fraction (radiation toxicity) at the IsD. The IsD value is a useful indicator of the overall potency of a compound as a sensitizer and cytotoxin of hypoxic cells. IsD is especially useful when comparing different compounds for hypoxic cytotoxicity and radiosensitizing efficacy.
# FIGS. 5 and 6 illustrate the IsD at 7.5 Gy (FIG. 5A) and 20 Gy (FIG. 5B). FIGS. 5A and 6A include a comparison to the prior art NLA-1 compound. V79 cells were irradiated at 7.5 Gy or 20 Gy after a 1 hour exposure under hypoxia (symbols) or air (straight line), at various drug concentrations. No toxicity or radiosensitization for any tested compound was observed under aerobic conditions over the tested concentration ranges. IsD values were calculated from the intersections of the survival fractions of the hypoxic curves with the survival fraction in air. All data points in FIGS. 5 and 6 represent the mean of two replicate experiments.
# human Topo II = experiment: Topoisomerase II interaction (decatenation of kinetoplast DNA); type: biochemical; conditions: up to 1 mM
# Method: A Topo II assay kit (TopoGEN, Inc., Columbus, Ohio) also was used to assay the topoisomerase II--THNLA-1 interaction. […] Individual reaction mixtures were heated for 30 minutes at 37° C. on a heating block, and then 2 μl of a 10% SDS-proteinase K solution was added to each reaction mixture. The resulting reaction mixtures then were heated for an additional 30 minutes at 37° C. After addition of a 0.1 volume of loading buffer, the reaction mixtures were extracted with CHCl3 prior to submarine electrophoresis on a 1% agarose gel containing ethidium bromide (0.5 μg/ml).
# V79 cells [8] = experiment: Chemosensitization to L-PAM or cis-DDP in V79 cells; type: cell-based, Chinese hamster; conditions: V79 cells
# Method: L-PAM, also known as phenylalanine mustard and available from Sigma Chem. Co., St. Louis, Mo., first was dissolved in an ethanolic solution of HCl (0.5N). The ethanolic HCl solution was buffered with propylene glycol in a 1:9 ratio of ethanolic HCl solution to propylene glycol, and finally diluted 100 fold with suspension medium. cis-DDP, a platinum-based chemotherapeutic agent available from Sigma Chem. Co., St. Louis, Mo., was dissolved in water to a predetermined concentration.
# Experiments using a simultaneous addition of the sensitizer and chemotherapeutic agent for 1 hour at 37° C. under aerobic conditions were also performed.
# In all experiments, controls for the hypoxic cytotoxicity of the sensitizer and the toxicity of the chemotherapeutic alone were included. Survival curves were normalized for the hypoxic cytotoxicity of sensitizer in order to determine the dose modification factor (DMF), i.e., the ratio of chemotherapeutic agent concentrations required to reduce cell survival to a predetermined level (e.g., 0.5) alone or in combination with a sensitizer. Synergism between the chemotherapeutic agent and the chemosensitizer was determined using the fractional product concept which is applied in instances of independent action of drugs, or by isobologramic analysis. The results of the chemosensitization studies are illustrated in FIGS. 12-15.
# hypoxic cells = conditions: cited from earlier work
# mammalian cell cultures = conditions: cited from earlier work
# [9] = cited from earlier work
# DNA = conditions: cited from earlier work
# [10] = V79, 1 h, read-out: Hypoxic radiosensitizing potency: C1.6, concentration yielding an SER of 1.6, hypoxic V79 cells
# [11] = V79, read-out: Intracellular concentration at C1.6: C1.6i, hypoxic radiosensitization, V79 cells (tables)
structure (smiles),measurement,setting,value
COCC(O)Cn1ccnc1[N+](=O)[O-] (centres unmarked) [MISO],neurotoxicity,[1],significant neurotoxicity
same,C1.6i of comparison sensitizers,[2],0.70 mM
"CN1CCc2nc3ccccc3c(NCCCn3ccnc3[N+](=O)[O-])c2C1 [MeN-THNLA-1, 10-[3-(2-nitroimidazolyl)propylamino]-2-methyl-1,2,3,4-tetrahydro-benzo[b]-1,6-naphthyridine hydrochloride]",effect on mobility of supercoiled DNA,supercoiled DNA,do not affect the mobility of supercoiled DNA
same,Partition coefficient in octanol/water: PCo/w,[3]; hydrochloride,0.40 and 0.41
same,EC (SER 1.6),[4]; [10],59 µM
same,EC (SER 1.6),[4]; [11],586 µM
same,maximum SER value,[4],equal to OER
same,"Therapeutic index (ThI): IC50/A,1h /C1.6",[4],about 7
same,relative radiosensitizing potency,[4]; on the basis of C1.6i values,"more potent radiosensitizer than NLA-1, miso and pimonidazole"
same,solubility,Water solubility,~20 mM
same,IC50,[5],196 µM
same,"Hypoxic selectivity (differential aerobic/hypoxic toxicity): IC50/A,1h /IC50/H,1h",[5],2.2
same,IC50 at 1 h,[6],426 µM
same,formation of nicked DNA with Topo I,calf thymus Topo I; in Topo I test,no formation of nicked DNA was observed
same,inhibition of Topo I-induced relaxation,calf thymus Topo I; supercoiled DNA,only partially inhibited Topo I
same,EC (isoeffective to oxygen at 20 Gy),V79 cells [7]; read-out: Isoeffective to the oxygen dose at 20 Gy: IsD,~127 µM
same,inhibition of Topo II-induced decatenation of kinetoplast DNA,human Topo II,did not inhibit the action of Topoisomerase II on kinetoplast DNA
"O=[N+]([O-])c1nccn1CCCNc1c2c(nc3ccccc13)CCC2 [NLCPQ-1, 9-[3-(2-nitro-1-imidazolyl)propylamino]cyclopenten[b]quinoline hydrochloride]",Partition coefficient in octanol/water: PCo/w,[3],0.30
same,logP,[3]; read-out: Partition coefficient in octanol/water: PCo/w (converted),-0.523
same,EC (SER 1.6),[4]; [10],7 µM
same,EC (SER 1.6),[4]; [11],209 µM
same,maximum SER value,[4],equal to OER
same,"Therapeutic index (ThI): IC50/A,1h /C1.6",[4],25
same,solubility,Water solubility,~11 mM
same,IC50,[5],22 µM
same,IC50 at 1 h,[6],170 µM
same,chemosensitization to L-PAM or cis-DDP,V79 cells [8],strong chemosensitizers
same,EC (isoeffective to oxygen at 7.5 Gy),V79 cells [7]; read-out: Isoeffective to the oxygen dose at 7.5 Gy: IsD(7.5),25.5 µM
O=[N+]([O-])c1nccn1CC(O)CN1CC1 (centres unmarked) [RSU-1069],activity relative to MISO,hypoxic cells; experimental systems,substantially greater activity than MISO
same,fold lower toxic concentration for hypoxic versus aerobic cells,hypoxic cells; in vitro,~100 fold
O=C(Cn1ccnc1[N+](=O)[O-])NCCO [etanidazole],dose administrable to humans relative to MISO,[1],about a threefold higher dose than MISO
same,neurotoxicity,[1],less neurotoxic
"CN(C)CCCNc1c2ccccc2nc2cccc([N+](=O)[O-])c12 [nitracrine, 1-nitro-acridine]",potency as radiation sensitizer / hypoxia selective cytotoxin,mammalian cell cultures,potent hypoxia selective cytotoxin and a radiation sensitizer
same,potency as radiation sensitizer / hypoxia selective cytotoxin,mammalian cell cultures; listed as 1-nitracrine,twenty times more potent as a sensitizer than other nitracrine isomers tested
same,metabolism in vivo,[9],rapid metabolism
same,DNA dissociation kinetics / intercalation,DNA,faster dissociation kinetics from DNA than the other nitroacridine isomers
O=[N+]([O-])c1nccn1CC(O)CN1CCCCC1 (centres unmarked) [pimonidazole],dose administrable to humans relative to MISO,[1],total dose limitation similar to MISO
same,C1.6i of comparison sensitizers,[2],0.69 mM
